Molecular target: rat brain cortical membranes ([35S]-TBPS binding)
Assay: Steroid inhibition of [35S]-TBPS binding (radioligand displacement)
Settings: 3 nM [35S]-TBPS, in the presence of 5 μM GABA
Experimental: Steroid Inhibition of TBPS Binding
TBPS binding assays using rat brain cortical membranes in the presence of 5 μM GABA has been described (Gee et al, J. Pharmacol. Exp. Ther. 1987, 241, 346-353; Hawkinson et al, Mol. Pharmacol. 1994, 46, 977-985; Lewin, A. H et al., Mol. Pharmacol. 1989, 35, 189-194).
Briefly, cortices are rapidly removed following decapitation of carbon dioxide-anesthetized Sprague-Dawley rats (200-250 g). The cortices are homogenized in 10 volumes of ice-cold 0.32 M sucrose using a glass/teflon homogenizer and centrifuged at 1500×g for 10 min at 4° C. The resultant supernatants are centrifuged at 10,000×g for 20 min at 4° C. to obtain the P2 pellets. The P2 pellets are resuspended in 200 mM NaCl/50 mM Na—K phosphate pH 7.4 buffer and centrifuged at 10,000×g for 10 min at 4° C. This washing procedure is repeated twice and the pellets are resuspended in 10 volumes of buffer. Aliquots (100 uL) of the membrane suspensions are incubated with 3 nM [^35S]-TBPS and 5 μL aliquots of test drug dissolved in dimethyl sulfoxide (DMSO) (final 0.5%) in the presence of 5 μM GABA. The incubation is brought to a final volume of 1.0 mL with buffer. […] Following a 90 min incubation at room temp, the assays are terminated by filtration through glass fiber filters (Schleicher and Schuell No. 32) using a cell harvester (Brandel) and rinsed three times with ice-cold buffer. Filter bound radioactivity is measured by liquid scintillation spectrometry. Non-linear curve fitting of the overall data for each drug averaged for each concentration is done using Prism (GraphPad). […] The concentration of test compound producing 50% inhibition (IC50) of specific binding and the maximal extent of inhibition (Imax) are determined for the individual experiments with the same model used for the overall data and then the means±SEMs of the individual experiments are calculated.
Various compounds are or can be screened to determine their potential as modulators of [^35S]-TBPS binding in vitro. These assays are or can be performed in accordance with the above discussed procedures.

SMILES | IC50 [nM]
COC[C@]12CC[C@@](C)(O)C[C@@H]1CC[C@H]1[C@@H]3CC[C@H](C(=O)c4ccc(OC)cc4C)[C@@]3(C)CC[C@@H]12 [Compound 96] | > 100
COc1ccc2cc(C(=O)[C@H]3CC[C@H]4[C@@H]5CC[C@@H]6C[C@](C)(O)CC[C@@H]6[C@H]5CC[C@]34C)ccc2c1 [Compound 72] | 20 to 50
CN(C)c1ccc(C(=O)[C@H]2CC[C@H]3[C@@H]4CC[C@H]5C[C@](C)(O)CC[C@]5(C)[C@H]4CC[C@]23C)cc1 [Compound 114] | > 100
COC[C@]12CC[C@@](C)(O)C[C@@H]1CC[C@H]1[C@@H]3CC[C@H](C(=O)c4ccc(C)cc4)[C@@]3(C)CC[C@@H]12 [Compound 92] | > 100
C[C@@]1(O)CC[C@H]2[C@H](CC[C@@H]3[C@@H]2CC[C@]2(C)[C@@H](C(=O)c4ccc(F)cc4)CC[C@@H]32)C1 [Compound 55] | 20 to 50
COC[C@]12CC[C@@](C)(O)C[C@@H]1CC[C@H]1[C@@H]3CC[C@H](C(=O)c4ccc5c(c4)OCO5)[C@@]3(C)CC[C@@H]12 [Compound 94] | 50 to 100
CCc1ccc(C(=O)[C@H]2CC[C@H]3[C@@H]4CC[C@H]5C[C@](C)(O)CC[C@]5(COC)[C@H]4CC[C@]23C)cc1 [Compound 104] | > 100
C[C@@]1(O)CC[C@H]2[C@H](CC[C@@H]3[C@@H]2CC[C@]2(C)[C@@H](C(=O)c4cccs4)CC[C@@H]32)C1 [Compound 4] | 20 to 50
Cn1cc(C(=O)[C@H]2CC[C@H]3[C@@H]4CC[C@H]5C[C@](C)(O)CC[C@]5(C)[C@H]4CC[C@]23C)cn1 [Compound 124] | 50 to 100
Cn1c(C(=O)[C@H]2CC[C@H]3[C@@H]4CC[C@@H]5C[C@](C)(O)CC[C@@H]5[C@H]4CC[C@]23C)nc2ccccc21 [Compound 6] | > 100
C[C@@]1(O)CC[C@@]2(C)[C@@H](CC[C@@H]3[C@@H]2CC[C@]2(C)[C@@H](C(=O)c4ccc5c(c4)OCO5)CC[C@@H]32)C1 [Compound 133] | > 100
Cn1ncc(C(=O)[C@H]2CC[C@H]3[C@@H]4CC[C@@H]5C[C@](C)(O)CC[C@@H]5[C@H]4CC[C@]23C)n1 [Compound 99] | > 100
Cc1cccc(C(=O)[C@H]2CC[C@H]3[C@@H]4CC[C@H]5C[C@](C)(O)CC[C@]5(C)[C@H]4CC[C@]23C)c1 [Compound 82] | > 100
C[C@@]1(O)CC[C@@]2(C)[C@@H](CC[C@@H]3[C@@H]2CC[C@]2(C)[C@@H](C(=O)c4cccc(Cl)c4)CC[C@@H]32)C1 [Compound 101] | > 100
C[C@@]1(O)CC[C@@]2(C)[C@@H](CC[C@@H]3[C@@H]2CC[C@]2(C)[C@@H](C(=O)c4ccc(F)cc4)CC[C@@H]32)C1 [Compound 79] | > 100
Cn1ccnc1C(=O)[C@H]1CC[C@H]2[C@@H]3CC[C@@H]4C[C@](C)(O)CC[C@@H]4[C@H]3CC[C@]12C [Compound 3] | > 100
COc1cccc(C(=O)[C@H]2CC[C@H]3[C@@H]4CC[C@H]5C[C@](C)(O)CC[C@]5(C)[C@H]4CC[C@]23C)c1 [Compound 77] | > 100
C[C@@]1(O)CC[C@@]2(C)[C@H](CC[C@@H]3[C@@H]2CC[C@]2(C)[C@@H](C(=O)c4cc(F)cc(F)c4)CC[C@@H]32)C1 [Compound 23] | 50 to 100
C[C@@]1(O)CC[C@@]2(C)[C@@H](CC[C@@H]3[C@@H]2CC[C@]2(C)[C@@H](C(=O)c4ccc(OC(F)(F)F)cc4)CC[C@@H]32)C1 [Compound 108] | > 100
C[C@@]1(O)CC[C@@]2(C)[C@@H](CC[C@@H]3[C@@H]2CC[C@]2(C)[C@@H](C(=O)c4ccc(Cl)cc4)CC[C@@H]32)C1 [Compound 81] | > 100
Cc1ccc(C(=O)[C@H]2CC[C@H]3[C@@H]4CC[C@@H]5C[C@](C)(O)CC[C@@H]5[C@H]4CC[C@]23C)cc1F [Compound 41] | 20 to 50
COc1ccccc1C(=O)[C@H]1CC[C@H]2[C@@H]3CC[C@@H]4C[C@](C)(O)CC[C@@H]4[C@H]3CC[C@]12C [Compound 50] | > 100
COc1ccccc1C(=O)[C@H]1CC[C@H]2[C@@H]3CC[C@H]4C[C@](C)(O)CC[C@]4(C)[C@H]3CC[C@]12C [Compound 78] | > 100
COc1cccc(C(=O)[C@H]2CC[C@H]3[C@@H]4CC[C@@H]5C[C@](C)(O)CC[C@]5(C)[C@H]4CC[C@]23C)c1 [Compound 63] | 50 to 100
Cc1ccsc1C(=O)[C@H]1CC[C@H]2[C@@H]3CC[C@@H]4C[C@](C)(O)CC[C@@H]4[C@H]3CC[C@]12C [Compound 46] | > 100

SMILES | IC50 [nM]
Cn1cc(C(=O)[C@H]2CC[C@H]3[C@@H]4CC[C@@H]5C[C@](C)(O)CC[C@@H]5[C@H]4CC[C@]23C)nn1 [Compound 100] | > 100
Cc1ccc(C(=O)[C@H]2CC[C@H]3[C@@H]4CC[C@@H]5C[C@](C)(O)CC[C@@H]5[C@H]4CC[C@]23C)cc1C [Compound 20] | 50 to 100
CN(C)c1ccc(C(=O)[C@H]2CC[C@H]3[C@@H]4CC[C@@H]5C[C@](C)(O)CC[C@]5(C)[C@H]4CC[C@]23C)cc1 [Compound 40] | 20 to 50
COc1ccc(C(=O)[C@H]2CC[C@H]3[C@@H]4CC[C@H]5C[C@](C)(O)CC[C@@H]5[C@H]4CC[C@]23C)cc1 [Compound 87] | > 100
C[C@@]1(O)CC[C@@]2(C)[C@H](CC[C@@H]3[C@@H]2CC[C@]2(C)[C@@H](C(=O)c4ccccc4F)CC[C@@H]32)C1 [Compound 84] | > 100
C[C@@]1(O)CC[C@@]2(C)[C@H](CC[C@@H]3[C@@H]2CC[C@]2(C)[C@@H](C(=O)c4ccc5ccccc5c4)CC[C@@H]32)C1 [Compound 18] | 50 to 100
C[C@@]1(O)CC[C@@]2(C)[C@H](CC[C@@H]3[C@@H]2CC[C@]2(C)[C@@H](C(=O)c4ccc5c(c4)OCO5)CC[C@@H]32)C1 [Compound 24] | < 20
Cc1cccc(C(=O)[C@H]2CC[C@H]3[C@@H]4CC[C@@H]5C[C@](C)(O)CC[C@@H]5[C@H]4CC[C@]23C)c1 [Compound 74] | 20 to 50
C[C@@]1(O)CC[C@H]2[C@H](CC[C@@H]3[C@@H]2CC[C@]2(C)[C@@H](C(=O)c4ccc5ccccc5c4)CC[C@@H]32)C1 [Compound 19] | 50 to 100
Cc1cc(C(=O)[C@H]2CC[C@H]3[C@@H]4CC[C@@H]5C[C@](C)(O)CC[C@]5(C)[C@H]4CC[C@]23C)ccc1F [Compound 137] | 20 to 50
COC[C@]12CC[C@@](C)(O)C[C@@H]1CC[C@H]1[C@@H]3CC[C@H](C(=O)c4ccccc4OC)[C@@]3(C)CC[C@@H]12 [Compound 105] | > 100
COC[C@]12CC[C@@](C)(O)C[C@@H]1CC[C@H]1[C@@H]3CC[C@H](C(=O)c4ccc(OC(F)(F)F)cc4)[C@@]3(C)CC[C@@H]12 [Compound 102] | 50 to 100
COc1cc(OC)cc(C(=O)[C@H]2CC[C@H]3[C@@H]4CC[C@H]5C[C@](C)(O)CC[C@]5(C)[C@H]4CC[C@]23C)c1 [Compound 13] | > 100
C[C@@]1(O)CC[C@H]2[C@H](CC[C@@H]3[C@@H]2CC[C@]2(C)[C@@H](C(=O)c4csc5ccccc45)CC[C@@H]32)C1 [Compound 11] | 20 to 50
C[C@@]1(O)CC[C@@]2(C)[C@@H](CC[C@@H]3[C@@H]2CC[C@]2(C)[C@@H](C(=O)c4cc(F)cc(F)c4)CC[C@@H]32)C1 [Compound 37] | 50 to 100
Cc1ccccc1C(=O)[C@H]1CC[C@H]2[C@@H]3CC[C@@H]4C[C@](C)(O)CC[C@@H]4[C@H]3CC[C@]12C [Compound 64] | > 100
C[C@@]1(O)CC[C@@]2(C)[C@@H](CC[C@@H]3[C@@H]2CC[C@]2(C)[C@@H](C(=O)c4ccccc4F)CC[C@@H]32)C1 [Compound 80] | > 100
Cc1cccc(C(=O)[C@H]2CC[C@H]3[C@@H]4CC[C@@H]5C[C@](C)(O)CC[C@]5(C)[C@H]4CC[C@]23C)c1 [Compound 73] | 50 to 100
Cc1ccc(C(=O)[C@H]2CC[C@H]3[C@@H]4CC[C@@H]5C[C@](C)(O)CC[C@]5(C)[C@H]4CC[C@]23C)cc1C [Compound 17] | 50 to 100
C[C@@]1(O)CC[C@H]2[C@@H](CC[C@@H]3[C@@H]2CC[C@]2(C)[C@@H](C(=O)c4ccc5ccccc5c4)CC[C@@H]32)C1 [Compound 59] | 50 to 100
C[C@@]1(O)CC[C@H]2[C@H](CC[C@@H]3[C@@H]2CC[C@]2(C)[C@@H](C(=O)c4ccc5c(c4)OCO5)CC[C@@H]32)C1 [Compound 35] | < 20
C[C@@]1(O)CC[C@H]2[C@H](CC[C@@H]3[C@@H]2CC[C@]2(C)[C@@H](C(=O)c4ccsc4)CC[C@@H]32)C1 [Compound 10] | < 20
CCc1ccc(C(=O)[C@H]2CC[C@H]3[C@@H]4CC[C@@H]5C[C@](C)(O)CC[C@@H]5[C@H]4CC[C@]23C)cc1 [Compound 42] | < 20
COc1ccc(C(=O)[C@H]2CC[C@H]3[C@@H]4CC[C@@H]5C[C@](C)(O)CC[C@@H]5[C@H]4CC[C@]23C)c(C)c1 [Compound 43] | 20 to 50
CCc1ccc(C(=O)[C@H]2CC[C@H]3[C@@H]4CC[C@H]5C[C@](C)(O)CC[C@]5(C)[C@H]4CC[C@]23C)cc1 [Compound 134] | > 100

Source: patent publication US11945836B2, “Compositions and methods for treating CNS disorders” (Sage Therapeutics, Inc., priority 2014, dated 2024)
